Reference: patent US11230541B2, “Heterocyclic compound” (Takeda Pharmaceutical Company Limited, priority 2017, dated 2022)

target: T1, NMDA receptor composed of four subunits including 2 sets of heterodimers of NR1 and NR2B (Homo sapiens, UniProt Q13224); assay: NR2B Ca2+ influx assay (FLIPR, Fluo-4) in HEK293 cells expressing human GRIN1 and GRIN2B; format: cell-based; settings: HEK293, 10 μM final compound concentration, glutamic acid/glycine-induced Ca2+ influx, read-out: inhibitory rate (10 μM compound concentration)
T1 construct: host or cells: HEK293 (tetracycline-induced expression)
In short: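 Tetracycline-induced (2 h) HEK293 cells expressing human GRIN1/GRIN2B, Fluo-4-loaded, were preincubated 15 min at room temperature with compound at 10 μM final. FLIPR recorded Ca2+ influx every 3 s for 5 min after glutamate/glycine addition (30 μM in added buffer); inhibition from cumulative fluorescence relative to agonist-free wells.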

T1 sequence (Q13224 27-1484, other chains not shown): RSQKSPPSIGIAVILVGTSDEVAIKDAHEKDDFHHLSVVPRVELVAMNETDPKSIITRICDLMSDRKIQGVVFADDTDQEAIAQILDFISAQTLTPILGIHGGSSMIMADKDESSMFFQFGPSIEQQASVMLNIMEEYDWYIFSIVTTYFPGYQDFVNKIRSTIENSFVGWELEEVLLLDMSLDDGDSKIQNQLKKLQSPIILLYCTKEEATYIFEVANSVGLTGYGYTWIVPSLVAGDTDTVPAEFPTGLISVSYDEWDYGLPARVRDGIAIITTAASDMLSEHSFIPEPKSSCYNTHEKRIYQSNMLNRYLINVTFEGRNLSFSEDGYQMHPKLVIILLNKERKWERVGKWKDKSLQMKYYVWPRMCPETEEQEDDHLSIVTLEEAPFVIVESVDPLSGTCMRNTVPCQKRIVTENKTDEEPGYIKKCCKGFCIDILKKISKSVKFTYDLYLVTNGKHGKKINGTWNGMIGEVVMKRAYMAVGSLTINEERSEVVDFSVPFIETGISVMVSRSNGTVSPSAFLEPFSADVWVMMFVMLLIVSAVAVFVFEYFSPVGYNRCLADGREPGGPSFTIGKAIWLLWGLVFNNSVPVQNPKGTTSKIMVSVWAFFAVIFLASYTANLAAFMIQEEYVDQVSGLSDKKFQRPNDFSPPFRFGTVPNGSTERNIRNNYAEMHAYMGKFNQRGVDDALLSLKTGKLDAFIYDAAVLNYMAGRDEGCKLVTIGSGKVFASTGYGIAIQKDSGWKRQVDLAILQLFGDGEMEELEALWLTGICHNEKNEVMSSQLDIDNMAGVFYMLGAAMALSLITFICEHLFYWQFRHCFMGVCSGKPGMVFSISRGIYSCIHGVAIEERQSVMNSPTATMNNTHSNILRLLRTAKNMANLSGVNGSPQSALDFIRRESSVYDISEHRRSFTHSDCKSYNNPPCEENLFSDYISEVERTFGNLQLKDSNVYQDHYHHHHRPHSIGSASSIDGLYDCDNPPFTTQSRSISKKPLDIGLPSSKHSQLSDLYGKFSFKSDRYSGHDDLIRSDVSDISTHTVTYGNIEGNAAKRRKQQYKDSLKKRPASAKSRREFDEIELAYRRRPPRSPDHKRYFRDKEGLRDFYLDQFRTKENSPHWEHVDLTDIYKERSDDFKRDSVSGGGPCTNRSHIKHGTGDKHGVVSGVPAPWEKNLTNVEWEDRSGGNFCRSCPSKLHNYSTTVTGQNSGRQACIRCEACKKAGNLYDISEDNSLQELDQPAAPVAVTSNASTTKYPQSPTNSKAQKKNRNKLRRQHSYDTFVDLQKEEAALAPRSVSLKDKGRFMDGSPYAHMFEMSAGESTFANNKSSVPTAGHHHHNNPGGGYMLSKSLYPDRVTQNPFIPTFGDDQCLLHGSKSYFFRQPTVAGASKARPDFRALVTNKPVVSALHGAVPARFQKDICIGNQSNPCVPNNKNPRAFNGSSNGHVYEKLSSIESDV

inhibition at 10 µM | SMILES
74% | O=C(NCc1cccc2[nH]ncc12)c1ccc(Cl)c(F)c1 [Example 187, 4-chloro-3-fluoro-N-(1H-indazol-4-ylmethyl)benzamide]
52% | O=C(NCc1cccc2[nH]ncc12)c1cc(F)c(F)c(Cl)c1 [Example 188, 3-chloro-4,5-difluoro-N-(1H-indazol-4-ylmethyl)benzamide]
67% | O=C(NCc1cccc2[nH]ncc12)c1cc(F)c(Cl)c(F)c1 [Example 189, 4-chloro-3,5-difluoro-N-(1H-indazol-4-ylmethyl)benzamide]
86% | O=C(NCc1cccc2[nH]ncc12)c1ccc(C(F)F)c(Cl)c1 [Example 190, 3-chloro-4-(difluoromethyl)-N-(1H-indazol-4-ylmethyl)benzamide]
94% | O=C(NCc1cccc2[nH]ncc12)c1cnc(OC(F)F)c(F)c1 [Example 191, 6-(difluoromethoxy)-5-fluoro-N-(1H-indazol-4-ylmethyl)nicotinamide]
94% | O=C(NCc1cccc2[nH]ncc12)c1ccc(OC(F)F)c(F)c1 [Example 192, 4-(difluoromethoxy)-3-fluoro-N-(1H-indazol-4-ylmethyl)benzamide]
86% | COc1ncc(C(=O)NCc2c(C)ccc3[nH]nnc23)cc1F [Example 193, 5-fluoro-6-methoxy-N-((5-methyl-1H-benzotriazol-4-yl)methyl)nicotinamide]
97% | Cc1ccc2[nH]nnc2c1CNC(=O)c1ccc(OC(F)(F)F)cc1 [Example 194, N-((5-methyl-1H-benzotriazol-4-yl)methyl)-4-(trifluoromethoxy)-benzamide]
91% | Cc1ccc2[nH]nnc2c1CNC(=O)c1cc(F)c(C(F)(F)F)c(F)c1 [Example 195, 3,5-difluoro-N-((5-methyl-1H-benzotriazol-4-yl)methyl)-4-(trifluoromethyl)-benzamide]
78% | Cc1ccc2[nH]nnc2c1CNC(=O)c1cc(F)c(C)c(F)c1 [Example 196, 3,5-difluoro-4-methyl-N-((5-methyl-1H-benzotriazol-4-yl)methyl)benzamide]
96% | COc1c(F)cc(C(=O)NCc2c(C)ccc3[nH]nnc23)cc1F [Example 197, 3,5-difluoro-4-methoxy-N-((5-methyl-1H-benzotriazol-4-yl)methyl)benzamide]

More lines, now with the values behind:

SMILES | inhibition at 10 µM
Cc1ccc2ncn(C)c2c1CNC(=O)c1csc(C(F)(F)F)c1 [Example 163, N-((1,6-dimethyl-1H-benzimidazol-7-yl)methyl)-5-(trifluoromethyl)-thiophene-3-carboxamide] | 89%
CCc1ccc2ncn(C)c2c1CNC(=O)c1ccc(OC(F)F)nc1 [Example 164, 6-(difluoromethoxy)-N-((6-ethyl-1-methyl-1H-benzimidazol-7-yl)methyl)nicotinamide] | 92%
COc1ncc(C(=O)NCc2c(C3CC3)ccc3[nH]nnc23)cc1F [Example 165, N-((5-cyclopropyl-1H-benzotriazol-4-yl)methyl)-5-fluoro-6-methoxynicotinamide] | 91%
O=C(NCc1cccc2[nH]ncc12)c1csc(Cl)c1 [Example 166, 5-chloro-N-(1H-indazol-4-ylmethyl)thiophene-3-carboxamide] | 56%
O=C(NCc1cccc2[nH]ncc12)c1ccc(C(F)(F)F)s1 [Example 167, N-(1H-indazol-4-ylmethyl)-5-(trifluoromethyl)-thiophene-2-carboxamide] | 58%
O=C(NCc1cccc2[nH]ncc12)c1cc(Cl)c(Cl)s1 [Example 168, 4,5-dichloro-N-(1H-indazol-4-ylmethyl)thiophene-2-carboxamide] | 90%
COc1ncc(C(=O)NCc2cccc3[nH]ncc23)cc1Cl [Example 169, 5-chloro-N-(1H-indazol-4-ylmethyl)-6-methoxynicotinamide] | 70%
O=C(NCc1cccc2[nH]ncc12)c1ccc(OC(F)(F)F)nc1 [Example 170, N-(1H-indazol-4-ylmethyl)-6-(trifluoromethoxy)-nicotinamide] | 76%
CCOc1ncc(C(=O)NCc2cccc3[nH]ncc23)cc1F [Example 171, 6-ethoxy-5-fluoro-N-(1H-indazol-4-ylmethyl)nicotinamide] | 85%
COc1ncc(C(=O)NCc2cccc3[nH]ncc23)cc1F [Example 172, 5-fluoro-N-(1H-indazol-4-ylmethyl)-6-methoxynicotinamide] | 60%
O=C(NCc1cccc2[nH]ncc12)c1cc(F)c(C(F)(F)F)c(F)c1 [Example 173, 3,5-difluoro-N-(1H-indazol-4-ylmethyl)-4-(trifluoromethyl)-benzamide] | 80%
O=C(NCc1cccc2[nH]ncc12)c1ccc(C(F)(F)F)c(F)c1 [Example 174, 3-fluoro-N-(1H-indazol-4-ylmethyl)-4-(trifluoromethyl)-benzamide] | 80%
O=C(NCc1cccc2[nH]ncc12)c1ccc(C(F)(F)F)cc1 [Example 175, N-(1H-indazol-4-ylmethyl)-4-(trifluoromethyl)-benzamide] | 82%
Cc1ccc(C(=O)NCc2cccc3[nH]ncc23)cc1F [Example 176, 3-fluoro-N-(1H-indazol-4-ylmethyl)-4-methylbenzamide] | 51%
O=C(NCc1cccc2[nH]ncc12)c1ccc(C(F)F)cc1 [Example 177, 4-(difluoromethyl)-N-(1H-indazol-4-ylmethyl)benzamide] | 52%
O=C(NCc1cccc2[nH]ncc12)c1ccc(C(F)F)c(F)c1 [Example 178, 4-(difluoromethyl)-3-fluoro-N-(1H-indazol-4-ylmethyl)benzamide] | 70%
O=C(NCc1cccc2[nH]ncc12)c1ccc(OC(F)(F)F)c(F)c1 [Example 179, 3-fluoro-N-(1H-indazol-4-ylmethyl)-4-(trifluoromethoxy)-benzamide] | 96%
COc1c(F)cc(C(=O)NCc2cccc3[nH]ncc23)cc1F [Example 180, 3,5-difluoro-N-(1H-indazol-4-ylmethyl)-4-methoxybenzamide] | 89%
COc1ccc(C(=O)NCc2cccc3[nH]ncc23)cc1F [Example 181, 3-fluoro-N-(1H-indazol-4-ylmethyl)-4-methoxybenzamide] | 67%
O=C(NCc1cccc2[nH]ncc12)c1ccc(OC(F)F)c(Cl)c1 [Example 182, 3-chloro-4-(difluoromethoxy)-N-(1H-indazol-4-ylmethyl)benzamide] | 97%
O=C(NCc1cccc2[nH]ncc12)c1ccc(OC(F)F)cc1 [Example 183, 4-(difluoromethoxy)-N-(1H-indazol-4-ylmethyl)benzamide] | 87%
O=C(NCc1cccc2[nH]ncc12)c1cc(F)c(OC(F)F)c(F)c1 [Example 184, 4-(difluoromethoxy)-3,5-difluoro-N-(1H-indazol-4-ylmethyl)benzamide] | 93%
Cc1ccc(C(=O)NCc2cccc3[nH]ncc23)cc1Cl [Example 185, 3-chloro-N-(1H-indazol-4-ylmethyl)-4-methylbenzamide] | 74%
O=C(NCc1cccc2[nH]ncc12)c1ccc(F)c(Cl)c1 [Example 186, 3-chloro-4-fluoro-N-(1H-indazol-4-ylmethyl)benzamide] | 56%
